Data on 9 molecules can be found in patent US4016287A, “Dermatological compositions containing an acylamino-carboxylic acid or an alkyl ester thereof” (Boehringer Ingelheim GmbH, priority 1975, dated 1977).

By LD50 is commonly meant the dose at which mortality reaches 50%. Read a high LD50 as lower toxicity.

The subject of the first data set is sebaceous gland excretion. Briefly: sebaceous gland excretion-inhibiting activity, glass block method (refatting of forehead skin). The class given is in vivo, human. The following applies: difference between treated and controls (ethanol); ethanolic 5% solution, 0.25 ml on half of forehead. As for the experimental part: The sebaceous gland excretion-inhibiting activity was ascertained by the glass block method described by Schaefer and Kuhn-Bussius in Arch. Klin. exper. Derm. 238, 429-435 (1970). Small glass blocks, the facets of which have been roughened or frosted, are pressed against the skin surface where the amount of skin fat is measured. The skin fat or sebum transferred from the skin to the glass facet makes the blocks more translucent, and the increase in translucence is directly proportional to the amount of sebum present in the skin area. The translucence is measured in a photometer. Prior to measurement of the degree of refating of the skin, the skin fat was removed with a plastic foil.
0.25 ml of an ethanolic 5% solution of the compound to be tested was applied to half of the forehead of 5 to 10 human test subjects, while 0.25 ml of ethanol was applied to half of the forehead of a group of 5 to 10 control subjects. After 90 minutes the skin fat was removed with the plastic foil, and after three additional hours the degree of refatting was determining with the aid of the small glass blocks referred to above.
As to `CCCCCCCCCCCCCCCCOC(=O)CNC(C)=O` [A, n-acetyl-glycine hexadecyl ester], the “Average extinction values, Difference” value stood at 9.5.
Consider `CCCCCCCCCCCCCCCCOC(=O)C(C)NC(C)=O` (stereo not drawn) [B, n-acetyl-alanine hexadecyl ester], for which the “Average extinction values, Difference” value is 7.5.
For the molecule `CCCCCCCCCCCCCCCCOC(=O)CNC(=O)c1ccccc1` [Compound C, n-benzoyl-glycine hexadecyl ester], the “Average extinction values, Difference” value is on record as 16.5.
Turning to `CCCCCCCCCCCCCCCCOC(=O)CN(C)C(C)=O` [D, n-acetyl-sarcosine hexadecyl ester], the “Average extinction values, Difference” value was 9.0.

The data set is the same for the next values; noted with them: ethanolic 5% solution, 0.25 ml on half of forehead; skin fat removed after 90 minutes, refatting measured after three additional hours; treated group.
Consider `CCCCCCCCCCCCCCCCOC(=O)CNC(C)=O` [A, n-acetyl-glycine hexadecyl ester], for which the “Average extinction values, Treated” value is reported as 75.5.
Take `CCCCCCCCCCCCCCCCOC(=O)C(C)NC(C)=O` (stereo not drawn) [B, n-acetyl-alanine hexadecyl ester]: the “Average extinction values, Treated” value amounted to 74.0.
Regarding `CCCCCCCCCCCCCCCCOC(=O)CNC(=O)c1ccccc1` [Compound C, n-benzoyl-glycine hexadecyl ester], the “Average extinction values, Treated” value worked out at 78.5.
For the molecule `CCCCCCCCCCCCCCCCOC(=O)CN(C)C(C)=O` [D, n-acetyl-sarcosine hexadecyl ester], the “Average extinction values, Treated” value was found to be 86.5.

For a further data set, the system named is dinitrochlorobenzene-eczema. Nature of the data set: antiphlogistic activity, dinitrochlorobenzene-eczema method. The following applies: Cavia porcellus, topical; ethanolic 5% solution on shaved flanks, 30 minutes before 1% dinitrochlorobenzene; visual evaluation after 22 hours; read-out: Inhibition of dinitrochlorobenzene-eczema over control. The class given is in vivo, guinea pigs. As for the experimental part:
The antiphlogistic activity was ascertained by the dinitrochlorobenzene-eczema method [see A. I. Scott, Brit. J. Dermatol. 77, 586 (1965)].
The compound to be tested was applied in the form of an ethanolic 5% solution to the shaved flanks of a group of 10 guinea pigs which has been sensitized with dinitrochlorobenzene. An analogous control group was treated with only ethanol. The treatment was effected 30 minutes prior to release of the allergic reaction with a 1% solution of dinitrochlorobenzene in acetone. The results were visually evaluated 22 hours thereafter.
In the case of `CCCCCCCCCCCCCCCCOC(=O)CNC(C)=O` [A, n-acetyl-glycine hexadecyl ester], the inhibition in vivo at 5 % came out at 46%.
Turning to `CCCCCCCCCCCCCCCCOC(=O)C(C)NC(C)=O` (stereo not drawn) [B, n-acetyl-alanine hexadecyl ester], the inhibition in vivo at 5 % is 19%.
As for `CCCCCCCCCCCCCCCCOC(=O)CNC(=O)c1ccccc1` [Compound C, n-benzoyl-glycine hexadecyl ester], the inhibition in vivo at 5 % turned out to be 28%.
As to `CCCCCCCCCCCCCCCCOC(=O)CN(C)C(C)=O` [D, n-acetyl-sarcosine hexadecyl ester], the inhibition in vivo at 5 % stood at 20%.
As to `CCCCCCCCCCCCCCCCOC(=O)CNC=O` [F, n-formyl-glycine hexadecyl ester], the inhibition in vivo at 5 % amounted to 50%.
As for `CCCCCCCCCCCCCCCCOC(=O)CNC(=O)CC` [G, n-propionyl-glycine hexadecyl ester], the inhibition in vivo at 5 % amounted to 34%.
Take `CCCCCCCCCCCCCC(=O)NCC(=O)O` [H, n-tetradecanoyl-glycine]: the inhibition in vivo at 5 % amounted to 38%.
As for `O=C(O)CCCNC(=O)c1ccc(-c2ccccc2)cc1` [I, n-(4'-phenyl-benzoyl)-4-amino-butyric acid], the inhibition in vivo at 5 % was 36%.
Turning to `CCCCCCCCCCCCCCCCOC(=O)CCNC(C)=O` [J, n-acetyl-β-alanine hexadecyl ester], the inhibition in vivo at 5 % worked out at 35%.

Test system in another data set: not listed separately
Briefly: acute toxicity, LD50 mouse i.p. To be noted: in vivo, ip.
As for `CCCCCCCCCCCCCCCCOC(=O)CNC(=O)c1ccccc1` [Compound C, n-benzoyl-glycine hexadecyl ester], the median lethal dose (LD50) was over 4000 mg/kg.
